Results on seven molecules are retold here after patent US9079897B2, “Imidazo-pyridine derivatives as activin-like receptor kinase (ALK4 or ALK5) inhibitors” (NOVARTIS AG, priority 2008, dated 2015).

Data set [1] concerns the target T1, human ALK5 (kinase domain, ALK5 T204D) (Homo sapiens, UniProt P36897, T204D).
T1 construct: The kinase domain of human ALK5 (amino acids 200-503); made in house; host or cells: insect cells (baculovirus expression)
T1 sequence (P36897 200-503 T204D): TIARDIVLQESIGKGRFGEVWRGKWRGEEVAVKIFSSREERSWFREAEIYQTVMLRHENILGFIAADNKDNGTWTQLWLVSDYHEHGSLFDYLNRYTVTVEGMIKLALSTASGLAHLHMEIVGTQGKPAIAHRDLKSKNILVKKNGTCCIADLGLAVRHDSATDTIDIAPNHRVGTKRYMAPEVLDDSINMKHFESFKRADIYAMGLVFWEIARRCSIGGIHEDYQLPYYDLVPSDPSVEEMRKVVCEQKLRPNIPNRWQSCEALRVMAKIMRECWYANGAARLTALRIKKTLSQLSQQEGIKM
As to the kind of experiment: ALK5 kinase activity, [33P] phosphate incorporation into casein. In kind it is biochemical. The settings on record: casein substrate. As for the experimental part:
The kinase activity of ALK5 is assessed by measuring radiolabelled phosphate [33P] incorporation in to the generic substrate, casein. The kinase domain of human ALK5 (amino acids 200-503) is fused to an N-terminal histidine tag. The kinase activity of ALK5 is rendered constitutive via point mutation at amino acid 204 (threonine to aspartate modification, ALK5 T204D) and the kinase construct is engineered to be expressed from a baculovirus expression construct in insect cells. The purified, recombinantly-expressed histidine-tagged ALK5 T204D protein is dissolved at 5.4 mg/ml in 50 mM Tris-HCl pH 8.0, 150 mM NaCl, 5 mM DTT. ALK5 T204D is dissolved to 2.5 μg/ml in assay buffer (Assay buffer: 20 mM Tris-HCl pH 7.4, 10 mM MgCl2, 2 mM MnCl2) on the day of use.
Test compounds and reference compounds are dissolved in assay buffer without DTT containing 5% (v/v) DMSO. Stock solutions of test and reference compounds are diluted in assay buffer with DTT (1.25 mM) containing 4.5% (v/v) DMSO. 10 μl of test or reference compound are added to the appropriate wells of 96 well U-bottomed plate. Total enzyme activity is determined by measuring ALK5 T204D activity in the absence of ALK5 kinase inhibitor reference compounds. Non-specific binding (NSB) is determined by measuring the activity of ALK5 T204D in the presence of ALK5 kinase inhibitor reference compounds. 10 μl of dephosphorylated casein stock solution (dephosphorylated casein is dissolved in ddH2O at 20 mg/ml) is added per well (200 μg/well final assay concentration). 20 μl of ALK5 T204D (2.5 μg/ml solution) is added per well (50 ng/well final assay concentration). The plates are left to incubate at room temperature for 10 minutes.
10 μl of ATP mix is added to the well to initiate the reaction (0.66 nM [^33P]ATP/1 μM unlabelled ATP/well final assay concentration). The ATP mix is prepared as follows, unlabelled ATP (3 mM) is dissolved in ddH2O and pH adjusted to 7.4. The stock concentration of [^33P]ATP is 10 μCi/μl. The appropriate volume of [^33P]ATP is added to unlabelled ATP solution such that the final assay concentration per well is 0.1 μCi. Following addition of the ATP mix, the plates are incubated at room temperature for 50 minutes. The kinase reaction is terminated by the addition of 50 μL Stop Buffer (20 mM Tris-HCl pH 7.4, 10 mM EDTA).
75 μl/well from the reaction plate is transferred to a Multiscreen-IP plate (MultiScreen-IP plates are prepared by added 50 μL of 70% (v/v) ethanol per well and incubated for 5 minutes at room temperature. The ethanol is removed by aspiration via a MultiScreen HTS Vaccum Manifold unit (Millipore, Cat no: MSVMHT500). The plates are washed twice by adding 200 μl/well ddH2O). The MultiScreen-IP plate is incubated at room temperature for 30 minutes to allowing binding of casein to the plate. The MultiScreen-IP plates are washed three times by adding 200 μl/well 100 mM phosphoric acid solution and the gasket is carefully removed from the back of the MultiScreen-IP plate and the plate dried in the oven for 30 minutes. The MultiScreen-IP plate is backsealed, 50 μL of MICROSCINT™20 is added, then the plates are topsealed and radiolabelled casein detected and quantified on a TOPCOUNT™ plate-reader using the ^33P scintillation protocol.

Data set [2] relates to dimethylnitrosamine induced liver fibrosis. The settings on record: rat, cited from earlier work.
The test system of data set [3] is bleomycin-induced pulmonary fibrosis. The conditions noted are these: bleomycin-treated rats; cited from earlier work.
Setting [4] is: given therapeutically, dimethylnitrosamine induced liver fibrosis.

As to `O[C@H]1CCC[C@@H](Nc2ccc3ncn(-c4ccnc(-c5ccoc5)c4)c3n2)C1` (racemic) [Example 1.5, (1SR, 3RS)-3-[3-(2-Furan-3-yl-pyridin-4-yl)-3H-imidazo[4,5-b]pyridin-5-ylamino]-cyclohexanol], in data set [1], the IC50 was 6 nM. Molecule `O[C@H]1CCC[C@H](Nc2ccc3ncn(-c4ccnc(-c5ccc(F)cc5)c4)c3n2)C1` (racemic) [Example 1.9, (1SR, 3SR)-3-{3-[2-(4-Fluorophenyl)-pyridin-4-yl)-3H-imidazo[4,5-b]pyridin-5-ylamino}-cyclohexanol] showed an IC50 in data set [1] of 318 nM.

`O[C@H]1CCC[C@@H](Nc2ccc3ncn(-c4ccnc(-n5cccn5)c4)c3n2)C1` (racemic) [Example 1.17, (1SR,3RS)-3-[3-(2-Pyrazol-1-yl-pyridine-4-yl)-3H-imidazo[4,5-b]pyridin-5-ylamino]-cyclohexanol] came in with an IC50 in data set [1] of 56 nM.

Take `OC1CCC(Nc2ccc3ncn(-c4ccnc(-c5ccoc5)c4)c3n2)CC1` (stereo not shown) [Example 1.1, 4-[3-(2-Furan-3-yl-pyridin-4-yl)-3H-imidazo[4,5-b]pyridin-5-ylamino]-cyclohexanol]: in data set [1], the IC50 worked out at 13 nM. For `Cc1ccn(-c2cc(-n3cnc4ccc(NC5CCCC(O)C5)nc43)ccn2)n1` (stereo not drawn) [Example 1.13, (1SR,3RS)-3-{3-[2-(3-Methyl-pyrazol-1-yl)pyridine-4-yl]-3H-imidzo[4,5-b]pyridin-5-ylamino}-cyclohexanol], the IC50 in data set [1] is 38 nM. Turning to `c1ccc(-c2cc(-c3cn[nH]c3-c3ccccn3)ccn2)cc1` [GW6604], the side effects entry in data set [2] (3 weeks treatment) is “no obvious side effects”. Moreover, in data set [2] (setting [4]), the “inhibition of extracellular matrix deposition” value was 60% and the “prevention of death rate” value was 40%.

B1: follistatin: an antagonist of activin signalling (protein, UniProt P19883 30-344, looked up)
Follistatin: GNCWLRQAKNGRCQVLYKTELSKEECCSTGRLSTSWTEEDVNDNTLFKWMIFNGGAPNCIPCKETCENVDCGPGKKCRMNKKNKPRCVCAPDCSNITWKGPVCGLDGKTYRNECALLKARCKEQPELEVQYQGRCKKTCRDVFCPGSSTCVVDQTNNAYCVTCNRICPEPASSEQYLCGNDGVTYSSACHLRKATCLLGRSIGLAYEGKCIKAKSCEDIQCTGGKKCLWDFKVGRGRCSLCDELCPDSKSDEPVCASDNATYASECAMKEAACSSGVLLEVKHSGSCNSISEDTEEEEEDEDQDYSFPISSILEW
With B1, in data set [3], the lung fibrosis entry was “attenuated lung fibrosis”; the “number of macrophages and neutrophils in bronchoalveolar lavage” value was “significantly reduced”.
